{
  "source": "patent US10993926B2",
  "about": "“Use of IDHP in preparation of drug or health product for prevention and treatment of coronary atherosclerosis disease” (NORTHWEST UNIVERSITY, priority 2016, dated 2021)",
  "key": {"[1]": {"test_system": "zebrafish intersegmental vessels", "test": "Angiogenesis in transgenic Tg (VEGFR2:GFP) zebrafish (intersegmental vessels)", "format": "in vivo", "conditions": "for Number of Blood Vessels / Length of Blood Vessels: zebrafish ISV", "experimental": "The transgenic Tg (VEGFR2:GFP) zebrafishes were cultured under the standard conditions of illumination for 14 hours/dark for 10 hours at 28° C. Healthy and mature zebrafishes were put into a breeding container at a ratio of female to male 1/1 or 1/2 for mating. The fertilized eggs were obtained at 9 to 10 o'clock the next day. The fertilized eggs were sterilized and washed, then transferred to zebrafish embryo culture medium and cultured at 28° C.\nDrug solution was added to a 24-well culture plate, and 24 hpf embryos were carefully transferred to wells, 8-10 per well, and culture medium was added until a total volume of 2 ml to make sure that the final concentration of DMSO in the medium was not higher than 1%. After 24-hour drug treatment, the embryos were observed under a fluorescence microscope, and the total number of intersegmental vessels in trunk and tail were counted, and the relative generation rate of ISV in each administration group was calculated. Analysis of variance between groups was performed using SPSS software."}, "[2]": {"test_system": "primary human umbilical vein endothelial cells (HUVEC)", "test": "Tube formation of HUVEC, Matrigel gel method", "format": "cell-based", "conditions": "8 hours on Matrigel, compared with Ctrl control group", "experimental": "1.3 Detect Tube Formation of Human Umbilical Vein Endothelial Cells (HUVEC) Promoted by IDHP—Matrigel Gel Method\nPipette tips and 96-well plate were pre-cooled at −20° C. Matrigel gel was placed on ice and melted, and then added to the pre-cooled 96-well plate (60 μl/well). Avoid the formation of air bubbles. The plate was placed on ice for 5 minutes to level the Matrigel gel, and then put into a cell culture incubator for 30 minutes to solidify. Endothelial cells were added to the wells (5×10^4 cells/well) containing Matrigel gel, and fresh medium containing different concentrations of the drug was added, incubated at 37° C. for 8 hours. The plate was observed under a microscope, 5 fields of view were chosen at 0, 3, 6, 9 o'clock positions and the center of each well, the number of tubules and the integrity of the tubular structure were observed and images were acquired."}, "mice [3]": {"test_system": "mice", "test": "Acute toxicity test in mice with rapid administration (IV)", "format": "in vivo", "experimental": "(§1) 4.1 Acute Toxicity Test in Mice with Rapid Administration\n(§2) Sixty mice were used, half male and half female, and randomly divided into 6 groups. […] The spacing between the concentrations was 1:0.9. After the animals were fasted for 12 hours, each group was subjected to IV administration, the volume was 20 ml/kg, and the administration was completed within 5 seconds for each animal."}, "[4]": {"test": "Acute toxicity test in mice with rapid administration (IV)", "format": "in vivo", "conditions": "both sexes, mouse, in vivo, iv, mice, IV, administration completed within 5 seconds", "experimental": "as §1, §2"}, "[5]": {"test_system": "human umbilical vein endothelial cells (HUVEC)", "test": "Proliferation of human umbilical vein endothelial cells, CCK-8 method", "format": "cell-based", "conditions": "10^−9 to 10^−7 M, 48 hours, compared with blank control, P<0.01, FIG. 1", "experimental": "1.1 Detect Proliferation of Human Umbilical Vein Endothelial Cells Promoted by IDHP—CCK-8 Method\nHuman umbilical vein endothelial cells were seeded in a 96-well plate at a density of approximately 2,500 cells per well. After the cells were culture for 24 hours, the medium was changed for a fresh medium containing drug, 100 μl/well, and the cells were continued culturing for 48 hours. 2 hours before the end of drug treatment, CCK-8 reagent was added to the culture medium in the dark, 10 μl per well. The culture was continued for 2 hours, and then the absorbance at 450 nm was determined with a microplate reader to calculate the cell proliferation rate."}, "mice [6]": {"test_system": "mice", "test": "Acute toxicity test in mice with slow administration (tail vein)", "format": "in vivo", "experimental": "(§3) 4.2 Acute Toxicity Test in Mice with Slow Administration\n(§4) After housing in the laboratory for 1 day, the test mice with qualified body weight were selected and randomly divided into groups according to body weight and sex, 10 for each group, half male and half female. According to the result of premeasurement, the absolute lethal dose was 2.4 g/kg. The mice were subjected to tail vein administration, the dose for the mice was calculated according to body weight. The doses were 2.4 g/kg, 2.2 g/kg, 2.0 g/kg, and 1.8 g/kg, respectively, and the drug delivery rate was calculated. The administration was completed within 10 minutes. The reactions of the mice were observed after the administration and the death of the mice was recorded within 14 days.\n(§5) The main toxic reactions after intravenous administration were central inhibition, respiratory failure, etc. Most of the death occurred during the administration period. […] After 14 days of observation, the mortality rate of the mice was calculated."}, "[7]": {"test": "Acute toxicity test in mice with slow administration (tail vein)", "format": "in vivo", "conditions": "both sexes, mouse, in vivo, intravenous, mice, tail vein, administration completed within 10 minutes, 14 days observation", "experimental": "as §3, §4, §5"}, "[8]": {"test_system": "human platelet aggregation induced by ADP", "test": "ADP-induced normal human platelet aggregation, turbidimetry", "format": "cell-based", "conditions": "human PRP, ADP 3 μmol/L, compared with ADP alone (Ctrl), FIG. 6", "experimental": "(§6) The whole blood samples of healthy volunteers were collected into the anticoagulant tubes and centrifuged at 800 g for 5 minutes at room temperature. The light yellow supernatant was the platelet-rich plasma (PRP); the remaining solution was further centrifuged at 4000 g for 10 minutes at room temperature, and the supernatant obtained was platelet-poor plasma (PPP).\n(§7) PRP was adjusted to 3×10^5 platelets/μl with PPP, 300 μl of adjusted PRP was added to 30 μl of PBS or different concentrations of IDHP and incubated at 37° C. for 3 minutes in a blood coagulation apparatus. Collagen or ADP at a final concentration of 3 μmol/L was added to initiate the aggregation reaction of platelets. The inhibitory effect of IDHP and clopidogrel on platelet aggregation was determined by turbidimetry."}, "[9]": {"test_system": "human umbilical vein endothelial cells (HUVEC)", "test": "Migration of HUVEC, scratch method", "format": "cell-based", "conditions": "10^−10 to 10^−7 M, 16 hours, FIG. 2", "experimental": "1.2 Detect Migration of Human Umbilical Vein Endothelial Cells (HUVEC) Promoted by IDHP—Scratch Method\nEndothelial cells were seeded on a cover slip pre-coated with gelatin in a 24-well plate at a density of about 10^5 cells per well. After the cells attached to the cover slip and reached confluence, cells were starved in a medium without serum for 4 hours. A home-made tool was used to make scratch on the cover slip with cells. The cover slip was washed twice with PBS, and a medium containing drug was added, 600 μl/well. Control group was immediately fixed with ice-cold methanol at zero time point; rest of the cells were cultured for 16 hours, and then fixed with ice-cold methanol. Images were acquired under a microscope and subjected to statistics analysis."}, "[10]": {"test_system": "human platelet aggregation induced by collagen", "test": "Collagen-induced normal human platelet aggregation, turbidimetry", "format": "cell-based", "conditions": "human PRP, collagen 3 μmol/L, compared with collagen alone (Ctrl), P<0.001, FIG. 6", "experimental": "as §6, §7"}, "red blood cells": {"test_system": "red blood cells", "test": "Hemolysis assay", "format": "cell-based, domestic rabbit", "conditions": "rabbit 2% red blood cells, IDHP groups 2 to 10 (10^−3 mol/l), 37±0.5° C., 0.5 h to 3 h", "experimental": "Arterial blood from domestic rabbit was collected, fibrin was removed, red blood cells were washed with physiological saline and then formulated into a 2% red blood cell physiological saline solution. The test was operated according to Table 4, four parallel test tubes in each group.\nAfter the above operation, the tubes were put in water bath at 37±0.5° C., one tube from each group was taken at 0.5 h, 1 h, 2 h and 3 h respectively, centrifuged at 3000 rpm for 15 minutes. Red blood cell hemolysis was observed, at the same time, the morphology of red blood cells was observed under light microscope."}},
  "note": "Like-named read-outs stand apart in the source and are kept apart here.",
  "data": [
    {"molecule": "Clc1ccc(Nc2nnc(Cc3ccncc3)c3ccccc23)cc1", "note": "[PTK787, reference compound]", "values": [
      {"measurement": "Number of Blood Vessels", "setting": "[1]; 0.1 μg/ml", "result": "3.6 ± 1.3"},
      {"measurement": "Length of Blood Vessels", "setting": "[1]; 0.1", "result": "36.4 ± 14.2", "unit": "μm"}
    ]},
    {"molecule": "VEGF", "values": [
      {"measurement": "Length of Blood Vessels", "setting": "[1]; 10 ng/ml", "result": "420.0 ± 54.2", "unit": "μm"},
      {"measurement": "Number of Blood Vessels", "setting": "[1]; 10 ng/ml", "result": "29.3 ± 3.3"}
    ]},
    {"molecule": "CC(C)OC(=O)C(O)Cc1ccc(O)c(O)c1", "note": "(stereo not drawn) [IDHP, β-(3,4-dihydroxyphenyl)-α-hydroxyisopropyl propionate]", "values": [
      {"measurement": "tube formation of primary HUVEC", "setting": "[2]", "result": "significantly promoted"},
      {"measurement": "time until undead animals returned to normal", "setting": "mice [3]; both, mouse, in vivo, iv", "result": 10, "unit": "min"},
      {"measurement": "Mortality Rate (%)", "setting": "mice [3]; both, mouse, in vivo, iv, 320 mg/kg", "result": 0, "unit": "%"},
      {"measurement": "Mortality Rate (%)", "setting": "mice [3]; both, mouse, in vivo, iv, 375 mg/kg", "result": 40, "unit": "%"},
      {"measurement": "Mortality Rate (%)", "setting": "mice [3]; both, mouse, in vivo, iv, 400 mg/kg", "result": 40, "unit": "%"},
      {"measurement": "Mortality Rate (%)", "setting": "mice [3]; both, mouse, in vivo, iv, 480 mg/kg", "result": 50, "unit": "%"},
      {"measurement": "Mortality Rate (%)", "setting": "mice [3]; both, mouse, in vivo, iv, 530 mg/kg", "result": 100, "unit": "%"},
      {"measurement": "Mortality Rate (%)", "setting": "mice [3]; both, mouse, in vivo, iv, 629 mg/kg", "result": 100, "unit": "%"},
      {"measurement": "time to death after the administration", "setting": "mice [3]; mice, rapid IV, dead animals", "result": "≤ 1", "unit": "min"},
      {"measurement": "autopsy of dead mice, vital organs (heart, liver, spleen, lung, kidney, brain, stomach, intestine)", "setting": "mice [3]; mouse, in vivo, iv", "result": "no abnormality"},
      {"measurement": "LD50", "setting": "[4]; read-out: LD50 95% confidence interval", "result": "370 to 486", "unit": "mg/kg"},
      {"measurement": "LD50", "setting": "[4]; read-out: LD50 (Bliss method, Feiller heterogeneity correction)", "result": "424 ± 58", "unit": "mg/kg"},
      {"measurement": "LD50", "setting": "[4]; read-out: LD50 (regression equation, without heterogeneity correction)", "result": 424, "unit": "mg/kg"},
      {"measurement": "proliferation of vascular endothelial cell", "setting": "[5]", "result": "significantly promoted"},
      {"measurement": "absolute lethal dose", "setting": "mice [6]; mice, premeasurement", "result": 2400, "unit": "mg/kg"},
      {"measurement": "anatomy findings", "setting": "mice [6]; mouse, in vivo", "result": "No abnormal changes"},
      {"measurement": "LD50 at 14 days", "setting": "[7]; read-out: LD50 95% confidence limit", "result": "1960 to 2140", "unit": "mg/kg"},
      {"measurement": "LD50 at 14 days", "setting": "[7]; read-out: LD50 (Bliss method)", "result": 2050, "unit": "mg/kg"},
      {"measurement": "inhibitory effect on ADP-induced platelet aggregation", "setting": "[8]", "result": "significantly inhibit"},
      {"measurement": "growth of intersegmental vessels and posterior longitudinal blood vessels in zebrafish", "setting": "[1]; 0.01, 0.1 and 1.0 μM, 24-hour treatment, FIG. 4", "result": "significantly promoted"},
      {"measurement": "relative generation rate of ISV", "setting": "[1]; calculated from total vessel length vs PTK787 control and normal control, FIG. 5", "result": "dose-dependent relationship"},
      {"measurement": "Length of Blood Vessels", "setting": "[1]; 0.01 μM", "result": "287.4 ± 18.8", "unit": "μm"},
      {"measurement": "Number of Blood Vessels", "setting": "[1]; 0.01 μM", "result": "25.0 ± 8.6"},
      {"measurement": "Length of Blood Vessels", "setting": "[1]; 0.1 μM", "result": "359.2 ± 58.2", "unit": "μm"},
      {"measurement": "Number of Blood Vessels", "setting": "[1]; 0.1 μM", "result": "26.1 ± 3.3"},
      {"measurement": "Length of Blood Vessels", "setting": "[1]; 1.0 μM", "result": "447.6 ± 19.5", "unit": "μm"},
      {"measurement": "migration of human umbilical vein endothelial cells (HUVEC)", "setting": "[9]", "result": "could promote the migration"},
      {"measurement": "inhibitory effect on collagen-induced platelet aggregation", "setting": "[10]", "result": "more significant"},
      {"measurement": "red blood cell hemolysis", "setting": "red blood cells", "result": "no obvious hemolysis"}
    ]},
    {"molecule": "COC(=O)[C@H](c1ccccc1Cl)N1CCc2sccc2C1", "note": "[clopidogrel, reference compound]", "values": [
      {"measurement": "inhibitory effect on ADP-induced platelet aggregation", "setting": "[8]", "result": "significantly inhibited"}
    ]}
  ]
}
